ChEMBL document CHEMBL1147592, “Novel quinazoline-quinoline alkaloids with cytotoxic and DNA topoisomerase II inhibitory activities” (Bioorg Med Chem Lett, 2004)
≈ marks a conversion by molar mass, not a printed value.

Legend:
[1] = test system: P388; assay: Cytotoxic activity against mouse leukemia P-388 cells; format: functional, cell-based
[2] = molecular target: DNA topoisomerase II (Homo sapiens, UniProt P11388+Q02880); assay: Inhibitory activity against human DNA topoisomerase II; format: protein assay

IC50 [2] [µM]	Structure (SMILES)	IC50 [1] [µg/mL]
25	O=c1c2ccccc2nc2n1C(O)c1cc3ccccc3nc1-2 (stereo not drawn)	5 (≈ 16.6 µM)
25	COC1c2cc3ccccc3nc2-c2nc3ccccc3c(=O)n21 (stereo not drawn)	9 (≈ 28.5 µM)
25	O=C(c1cnc2ccccc2c1)c1nc(O)c2ccccc2n1	20 (≈ 66.4 µM)
25	CC(=O)NC1c2cc3ccccc3nc2-c2nc3ccccc3c(=O)n21 (stereo not drawn)	33 (≈ 96.4 µM)
25	Oc1nc(-c2cnc3ccccc3c2)nc2ccccc12	40 (≈ 146 µM)
13.9	CC(C(C)N1CC(=O)NC(=O)C1)N1CC(=O)NC(=O)C1 (stereo not drawn) [ICRF-193]	–
28.5	O=c1c2ccccc2nc2n1Cc1cc3ccccc3nc1-2 [LUOTONIN A]	1.8 (≈ 6.31 µM)
